Experimental findings from ChEMBL document CHEMBL1201862, “PubChem BioAssay data set” (2004) are described below.

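Exposure lasted 48 hours, with cells grown in 96-well plates and compounds tested at five concentrations. GI50: concentration for 50% inhibition of growth.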 Active and inactive are the calls of the source. No stated cut-off is given here; in the data, active = GI50 up to about 1.1 µM and inactive = higher. Where only a bound is given, the exact number is not on record here.

What all share (assay): NCI anticancer screen, dose series, 48 h
Experiment [1] has as its system HCT-15.
The test system of experiment [2] is UACC-62.
Experiment [3] relates to CCRF-CEM.
Experiment [4] concerns MCF7.
Experiment [5] relates to PC-3.
The subject of experiment [6] is M14.
Experiment [7] relates to OVCAR-4.
The subject of experiment [8] is Malme-3M.
Experiment [9] relates to KM12.
For experiment [10], the system named is ACHN.
The subject of experiment [11] is BT-549.
Experiment [12] deals with MDA-N.
Experiment [13] concerns RXF 393.
Experiment [14] concerns RPMI-8226.
Experiment [15] relates to T47D.
The subject of experiment [16] is CAKI-1.
Experiment [17] has as its system KM-20L2.
Experiment [18] concerns M19-MEL.

For the compound `COc1ccc2c(c1)CCCc1c-2nc2ccccc2c1N`, the GI50 was 12.5 µM in [1]; 12.3 µM (inactive) in experiment [2]; 5.24 µM (inactive) in experiment [3]; 11.2 µM (inactive) in experiment [4]; 10.3 µM (inactive) in experiment [5]; 9.1 µM (inactive) in experiment [6]. Further, the GI50 in [7] was 12.6 µM (inactive); in [8], 14.1 µM (inactive); in experiment [9], 14 µM (inactive); in [10] it was 13.6 µM (inactive); in [11] it was 16.2 µM (inactive); in [12], 10.3 µM (inactive). The GI50 in [13] is 4.72 µM (inactive); in experiment [14] it was 5.87 µM (inactive); in [15], 12.4 µM (inactive); in experiment [16], 9.02 µM (inactive).
On to `N=C(N)NS(=O)(=O)c1ccc(Nc2c3ccccc3nc3c(C(=O)NCCO)cccc23)cc1`, for which the GI50 in experiment [1] was 0.236 µM; in experiment [2], 0.167 µM (active); in experiment [3], 0.416 µM (active); in experiment [4] it was 0.0282 µM (active); in experiment [5] it was 0.21 µM (active); in experiment [6] it was 0.183 µM (active). The GI50 in experiment [7] was 0.261 µM (active); in experiment [8], 0.156 µM (active); in experiment [9] it was 0.177 µM (active); in [10], 0.219 µM (active); in [11] it was 0.143 µM (active); in experiment [12], 0.267 µM (active). The GI50 is 0.173 µM (active) in experiment [13], 0.162 µM (active) in experiment [14], 0.148 µM (active) in experiment [15] and 0.205 µM (active) in experiment [16].
For the compound `CC(=O)c1cc(I)c(O)c2ncccc12`, the GI50 in experiment [1] is 5.13 µM; in [2] it was 3.3 µM (inactive); in [3] it was 2.07 µM (inactive); in experiment [4], 4.73 µM (inactive); in experiment [5], 5.71 µM (inactive); in experiment [6] it was 1.97 µM (inactive). Moreover, the GI50 was 2.94 µM (inactive) in experiment [7]; 3.45 µM (inactive) in [8]; > 10 µM (inactive) in experiment [9]; 2.43 µM (inactive) in [10]; 5.07 µM (inactive) in [11]; 5.02 µM (inactive) in [12]. Besides, the GI50 in [13] was 3.92 µM (inactive); in [14], 2.67 µM (inactive); in experiment [15], 5.74 µM (inactive); in experiment [16], 3.08 µM (inactive).
With `Cc1ccc(C(=O)N/N=C(\N=N\c2cccc([N+](=O)[O-])c2)c2ccc(N(CCC#N)CCC#N)cc2C)cc1`, the GI50 was 30.8 µM in experiment [1]; 26.1 µM (inactive) in [2]; 24.8 µM (inactive) in [3]; 13.2 µM (inactive) in [4]; 23.8 µM (inactive) in experiment [5]; 33.4 µM (inactive) in experiment [6]. For the same compound, the GI50 in [7] was 23.7 µM (inactive); in experiment [8], 4.12 µM (inactive); in experiment [9], 19.7 µM (inactive); in [10], 42.9 µM (inactive); in experiment [11], 19.6 µM (inactive); in [12], 25.1 µM (inactive). The GI50 is 8.75 µM (inactive) in experiment [13], 13 µM (inactive) in experiment [14], 9.18 µM (inactive) in experiment [15] and 38.9 µM (inactive) in experiment [16].
Take `O=C1NC(=O)/C(=C/c2ccc(S(=O)(=O)N/N=C/c3ccccc3)cc2)N1`: the GI50 in [1] is more than 100 µM; in [2], > 100 µM (inactive); in experiment [3] it was > 100 µM (inactive); in experiment [4], > 100 µM (inactive); in [5], > 100 µM (inactive); in [6] it was > 100 µM (inactive). Further, the GI50 in experiment [7], in experiment [8], in experiment [9], in experiment [10], in [11] and in experiment [12] was > 100 µM (inactive) each time. The GI50 in experiment [13], in experiment [14], in experiment [15] and in experiment [16] was > 100 µM (inactive) throughout.
Regarding `O=C(Cc1csc2[n+]1C(=O)/C(=C/c1ccc(Cl)cc1)S2)Nc1ccccc1`, the GI50 is 23.8 µM in experiment [1]; 10 µM (inactive) in experiment [2]; 23.8 µM (inactive) in [3]; 15.4 µM (inactive) in [4]; 16.4 µM (inactive) in experiment [5]; 28.1 µM (inactive) in experiment [6]. The GI50 is 30.3 µM (inactive) in experiment [7]; 30.1 µM (inactive) in [8]; 22.5 µM (inactive) in experiment [9]; 15.4 µM (inactive) in experiment [10]; 22.5 µM (inactive) in experiment [11]; 30.4 µM (inactive) in [12]. Besides, the GI50 in experiment [13] is 18.3 µM (inactive); in experiment [14], 23.4 µM (inactive); in experiment [15], 16.4 µM (inactive); in experiment [16], 28.1 µM (inactive).
Consider `CC1(C)CC23C4COC(=O)C2CCC1C3CC4=O` (stereo not given), for which the GI50 in experiment [1] was 6.52 µM; in experiment [2] it was 10.5 µM (inactive); in experiment [3] it was 2.37 µM (inactive); in experiment [4], 19.5 µM (inactive); in [17], 21.4 µM (inactive); in experiment [18], 11.9 µM (inactive). Further, the GI50 was 15.2 µM (inactive) in experiment [7]; 7.21 µM (inactive) in experiment [8]; 12.6 µM (inactive) in experiment [9]; 1.71 µM (inactive) in [13]; 5.28 µM (inactive) in experiment [14]; 5.47 µM (inactive) in [16].
On to `CC(C)=CCC/C(C)=C/CC/C(C)=C/CC/C(=C/CC/C(C)=C\CC/C(C)=C/CC/C(C)=C/CC/C(C)=C/Cc1cc(O)ccc1O)CO`, for which the GI50 in experiment [1] is 7.11 µM; in [2], 1.18 µM (inactive); in experiment [3] it was 3.56 µM (inactive); in experiment [4], 2.55 µM (inactive); in experiment [5], 4.2 µM (inactive); in [6], 0.681 µM (active). Also, the GI50 in experiment [7] was 2.51 µM (inactive); in experiment [8], 2.7 µM (inactive); in experiment [9] it was 1.67 µM (inactive); in [10] it was 12.4 µM (inactive); in experiment [11], 3.6 µM (inactive); in experiment [12], 3.21 µM (inactive). For the same compound, the GI50 was 0.483 µM (active) in [13], 1.82 µM (inactive) in experiment [14], 6.05 µM (inactive) in experiment [15] and 1.71 µM (inactive) in experiment [16].
With `CN(C)c1nc2sc3c(c2c(=O)o1)CCCC3`, the GI50 in experiment [1] was 33.3 µM; in experiment [2], 41.8 µM (inactive); in [3], 39.4 µM (inactive); in experiment [4], 48.3 µM (inactive); in experiment [5], 34.4 µM (inactive); in experiment [6], 40.1 µM (inactive). Besides, the GI50 in experiment [7] was 27.9 µM (inactive); in [8], 25.9 µM (inactive); in experiment [9] it was 21.6 µM (inactive); in [10] it was 34.1 µM (inactive); in experiment [11] it was 12.3 µM (inactive); in experiment [12] it was 38.2 µM (inactive). Further, the GI50 is 15.5 µM (inactive) in [13], 35.8 µM (inactive) in [14], 26.8 µM (inactive) in experiment [15] and 35.3 µM (inactive) in [16].
